Measured values: patent US10590140B2, “Tetrahydropyrimidodiazepine and dihydropyridodiazepine compounds for treating pain and pain related conditions” (ESTEVE PHARMACEUTICALS, S.A., priority 2016, dated 2020)
Where two headings read alike, the source gives them in different places.

Legend:
[1] = target: human α2δ-1 subunit of Cav2.2 calcium channel (Homo sapiens (Human), UniProt P54289); test: Binding assay to human α2δ-1 subunit of Cav2.2 calcium channel ([3H]-Gabapentin); conditions: read-out: Ki (nM) α2δ-1
Chain of human α2δ-1 subunit of Cav2.2 calcium channel (P54289 25-1103): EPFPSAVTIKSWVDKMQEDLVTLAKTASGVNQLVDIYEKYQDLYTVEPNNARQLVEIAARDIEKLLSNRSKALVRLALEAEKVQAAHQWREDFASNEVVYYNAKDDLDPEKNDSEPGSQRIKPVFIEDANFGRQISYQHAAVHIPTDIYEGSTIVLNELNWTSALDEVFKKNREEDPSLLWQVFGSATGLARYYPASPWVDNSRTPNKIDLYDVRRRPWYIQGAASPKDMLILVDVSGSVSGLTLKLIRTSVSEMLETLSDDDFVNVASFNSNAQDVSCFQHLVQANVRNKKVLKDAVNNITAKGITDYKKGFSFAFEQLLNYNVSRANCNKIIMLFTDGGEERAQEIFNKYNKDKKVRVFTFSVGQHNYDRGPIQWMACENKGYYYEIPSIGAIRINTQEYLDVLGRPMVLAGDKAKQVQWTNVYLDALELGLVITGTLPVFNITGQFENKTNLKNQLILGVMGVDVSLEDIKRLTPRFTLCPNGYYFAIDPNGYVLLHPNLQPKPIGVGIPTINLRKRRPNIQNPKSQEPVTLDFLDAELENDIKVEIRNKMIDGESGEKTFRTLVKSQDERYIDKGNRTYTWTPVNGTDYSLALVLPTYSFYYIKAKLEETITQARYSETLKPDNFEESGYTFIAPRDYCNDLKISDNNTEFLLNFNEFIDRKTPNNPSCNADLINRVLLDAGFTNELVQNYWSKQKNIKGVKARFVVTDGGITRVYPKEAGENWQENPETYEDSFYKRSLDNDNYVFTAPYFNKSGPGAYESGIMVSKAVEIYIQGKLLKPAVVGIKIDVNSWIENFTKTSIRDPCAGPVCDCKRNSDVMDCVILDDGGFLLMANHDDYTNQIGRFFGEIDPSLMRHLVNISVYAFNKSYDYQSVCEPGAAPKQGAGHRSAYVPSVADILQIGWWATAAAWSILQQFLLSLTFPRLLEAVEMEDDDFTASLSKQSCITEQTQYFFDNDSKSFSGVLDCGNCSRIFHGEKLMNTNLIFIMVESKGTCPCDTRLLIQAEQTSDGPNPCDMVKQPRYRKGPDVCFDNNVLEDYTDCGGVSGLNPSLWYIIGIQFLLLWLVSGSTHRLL
Method in brief: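 [3H]-gabapentin binding, 60 min at 27° C; nonspecific binding defined with 10 μM pregabalin. Terminated by filtration on PEI-presoaked GF/C filters, ice-cold 50 mM Tris-HCl pH 7.4 washes, then scintillation counting.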

[2] = target: human norepinephrine transporter (NET) (Homo sapiens (Human), UniProt P23975); test: Binding assay to human norepinephrine transporter (NET) ([3H]-Nisoxetin); conditions: Table 2, dual compounds; [3H]-Nisoxetin binding
Chain of human norepinephrine transporter (NET) (P23975 whole entry): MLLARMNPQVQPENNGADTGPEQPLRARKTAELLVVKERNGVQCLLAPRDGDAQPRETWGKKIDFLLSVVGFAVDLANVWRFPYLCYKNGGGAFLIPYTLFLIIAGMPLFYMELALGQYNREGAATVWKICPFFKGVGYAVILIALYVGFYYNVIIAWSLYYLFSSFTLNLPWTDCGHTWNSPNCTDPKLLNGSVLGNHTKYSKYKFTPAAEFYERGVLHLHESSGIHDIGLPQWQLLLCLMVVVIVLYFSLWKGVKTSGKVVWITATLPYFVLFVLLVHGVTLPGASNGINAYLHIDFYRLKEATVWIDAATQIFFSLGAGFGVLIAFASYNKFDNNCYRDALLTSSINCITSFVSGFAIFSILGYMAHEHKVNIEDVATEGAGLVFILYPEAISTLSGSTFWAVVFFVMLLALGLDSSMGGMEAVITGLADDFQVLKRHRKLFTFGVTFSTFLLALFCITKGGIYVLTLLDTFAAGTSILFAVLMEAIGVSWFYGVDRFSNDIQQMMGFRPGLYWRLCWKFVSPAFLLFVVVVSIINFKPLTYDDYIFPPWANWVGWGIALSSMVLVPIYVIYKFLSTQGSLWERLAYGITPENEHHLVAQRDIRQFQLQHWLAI
Description: Binding Assay to Human Norepinephrine Transporter (NET).
Human norepinephrine transporter (NET) enriched membranes (5 μg) were incubated with 5 nM of radiolabeled [3H]-Nisoxetin in assay buffer containing 50 mM Tris-HCl, 120 mM NaCl, 5 mM KCl, pH 7.4.
NSB (non specific binding) was measured by adding 1 μM. After 60 min incubation at 4° C., binding reaction was terminated by filtering through Multiscreen GF/C (Millipore) presoaked in 0.5% polyethyleneimine in Vacuum Manifold Station, followed by 3 washes with ice-cold filtration buffer containing 50 mM Tris-HCl, 0.9% NaCl, pH 7.4.
Filter plates were dried at 60° C. for 1 hour and 30 μl of scintillation cocktail were added to each well before radioactivity reading.

[3] = Table 2, dual compounds, [3H]-Gabapentin binding
[4] = binding to α2δ-1, [3H]-Gabapentin

| Compound | Ki [1, 3] | Ki [1, 4] | Ki [2] |
| --- | --- | --- | --- |
| CCNc1ncc2c(n1)N(C)CCN(c1cccc(OC(CN(C)C)c3ccccc3)c1)C2=O (stereo not drawn) [Example 239, 6-(3-(2-(dimethylamino)-1-phenylethoxy)phenyl)-2-(ethylamino)-9-methyl-6,7,8,9-tetrahydro-5H-pyrimido[4,5-e][1,4]diazepin-5-one] | > 3000 nM | > 3000 nM | 500 to 1000 nM |
| CCNc1ncc2c(n1)N(C)CCN(c1cccc(-n3cc(CN(C)Cc4ccccc4)nn3)c1)C2=O [Example 243, 6-(3-(4-((benzyl(methyl)amino)methyl)-1H-1,2,3-triazol-1-yl)phenyl)-2-(ethylamino)-9-methyl-6,7,8,9-tetrahydro-5H-pyrimido[4,5-e][1,4]diazepin-5-one] | 500 to 3000 nM | 500 to 3000 nM | < 100 nM |
| CCNc1ncc2c(n1)N(C)CCN(c1cccc(-n3cc(CN(C)CCc4ccccc4)nn3)c1)C2=O [Example 244, 2-(ethylamino)-9-methyl-6-(3-(4-((methyl(phenethyl)amino)methyl)-1H-1,2,3-triazol-1-yl)phenyl)-6,7,8,9-tetrahydro-5H-pyrimido[4,5-e][1,4]diazepin-5-one] | 500 to 3000 nM | 500 to 3000 nM | < 100 nM |
| CCNc1ncc2c(n1)N(C)CCN(c1cccc(-n3cc(CN(C)CC4CC4)nn3)c1)C2=O [Example 246, 6-(3-(4-(((cyclopropylmethyl)(methyl)amino)methyl)-1H-1,2,3-triazol-1-yl)phenyl)-2-(ethylamino)-9-methyl-6,7,8,9-tetrahydro-5H-pyrimido[4,5-e][1,4]diazepin-5-one] | 100 to 500 nM | 100 to 500 nM | 100 to 500 nM |
| CCNc1ncc2c(n1)N(C)CCN(c1cccc(-n3cc(CN(C)CCc4ccccc4)cn3)c1)C2=O [Example 252, 2-(ethylamino)-9-methyl-6-(3-(4-((methyl(phenethyl)amino)methyl)-1H-pyrazol-1-yl)phenyl)-6,7,8,9-tetrahydro-5H-pyrimido[4,5-e][1,4]diazepin-5-one] | 500 to 3000 nM | 500 to 3000 nM | 100 to 500 nM |
| CCNc1ncc2c(n1)N(C)CCN(c1cccc(-n3cnc(CN(C)Cc4ccccc4)c3)c1)C2=O [Example 253, 6-(3-(4-((benzyl(methyl)amino)methyl)-1H-imidazol-1-yl)phenyl)-2-(ethylamino)-9-methyl-6,7,8,9-tetrahydro-5H-pyrimido[4,5-e][1,4]diazepin-5-one] | 100 to 500 nM | 100 to 500 nM | 100 to 500 nM |
| CCNc1ncc2c(n1)N(C)CCN(c1cccc(-n3cnc(CN(C)CCc4ccccc4)c3)c1)C2=O [Example 254, 2-(ethylamino)-9-methyl-6-(3-(4-((methyl(phenethyl)amino)methyl)-1H-imidazol-1-yl)phenyl)-6,7,8,9-tetrahydro-5H-pyrimido[4,5-e][1,4]diazepin-5-one] | 500 to 3000 nM | 500 to 3000 nM | 500 to 1000 nM |
| CCNc1ncc2c(n1)N(C)CCN(c1cccc(C3CCN(CCc4ccccc4)CC3)c1)C2=O [Example 261, 2-(ethylamino)-9-methyl-6-(3-(1-phenethylpiperidin-4-yl)phenyl)-6,7,8,9-tetrahydro-5H-pyrimido[4,5-e][1,4]diazepin-5-one] | 100 to 500 nM | 100 to 500 nM | 100 to 500 nM |
| CCNc1ncc2c(n1)N(C)CCN(c1cccc(OCCN(C)Cc3ccccc3)c1)C2=O [Example 264, 6-(3-(2-(benzyl(methyl)amino)ethoxy)phenyl)-2-(ethylamino)-9-methyl-6,7,8,9-tetrahydro-5H-pyrimido[4,5-e][1,4]diazepin-5-one] | 100 to 500 nM | 100 to 500 nM | 100 to 500 nM |
| CCNc1ncc2c(n1)N(C)CCN(c1cccc(OCCN(C)CCc3ccccc3)c1)C2=O [Example 265, 2-(ethylamino)-9-methyl-6-(3-(2-(methyl(phenethyl)amino)ethoxy)phenyl)-6,7,8,9-tetrahydro-5H-pyrimido[4,5-e][1,4]diazepin-5-one] | 100 to 500 nM | 100 to 500 nM | 100 to 500 nM |
| CSc1ncc2c(n1)N(C)CCN(c1cccc(COC3(c4ccccc4)CCN(C)CC3)c1)C2=O [Example 271, 9-methyl-6-(3-(((1-methyl-4-phenylpiperidin-4-yl)oxy)methyl)phenyl)-2-(methylthio)-6,7,8,9-tetrahydro-5H-pyrimido[4,5-e][1,4]diazepin-5-one] | > 3000 nM | > 3000 nM | > 1000 nM |
| CCNc1ncc2c(n1)N(C)CCN(c1cccc(-n3cc(CN4CCC(c5ccccc5)CC4)nn3)c1)C2=O [Example 278, 2-(Ethylamino)-9-methyl-6-(3-(4-((4-phenylpiperidin-1-yl)methyl)-1H-1,2,3-triazol-1-yl)phenyl)-6,7,8,9-tetrahydro-5H-pyrimido[4,5-e][1,4]diazepin-5-one] | 500 to 3000 nM | 500 to 3000 nM | < 100 nM |
| CCNc1ncc2c(n1)N(C)CCN(c1cccc(-n3cc(CN4CCCCC4)nn3)c1)C2=O [Example 281, 2-(ethylamino)-9-methyl-6-(3-(4-(piperidin-1-ylmethyl)-1H-1,2,3-triazol-1-yl)phenyl)-6,7,8,9-tetrahydro-5H-pyrimido[4,5-e][1,4]diazepin-5-one] | 100 to 500 nM | 100 to 500 nM | 100 to 500 nM |
| CCNc1ncc2c(n1)N(C)CCN(c1cccc(-n3cc(CNCC4CC4)nn3)c1)C2=O [Example 285, 6-(3-(4-(((cyclopropylmethyl)amino)methyl)-1H-1,2,3-triazol-1-yl)phenyl)-2-(ethylamino)-9-methyl-6,7,8,9-tetrahydro-5H-pyrimido[4,5-e][1,4]diazepin-5-one] | 100 to 500 nM | 100 to 500 nM | 100 to 500 nM |
| CCNc1ncc2c(n1)N(C)CCN(c1cccc(-n3cc(CN(C)Cc4ccc(F)cc4)nn3)c1)C2=O [Example 287, 2-(ethylamino)-6-(3-(4-(((4-fluorobenzyl)(methyl)amino)methyl)-1H-1,2,3-triazol-1-yl)phenyl)-9-methyl-6,7,8,9-tetrahydro-5H-pyrimido[4,5-e][1,4]diazepin-5-one] | 500 to 3000 nM | 500 to 3000 nM | < 100 nM |
| CCNc1ncc2c(n1)N(C)CCN(c1cccc(-n3cc(CN(C)Cc4ccccn4)nn3)c1)C2=O [Example 288, 2-(ethylamino)-9-methyl-6-(3-(4-((methyl(pyridin-2-ylmethyl)amino)methyl)-1H-1,2,3-triazol-1-yl)phenyl)-6,7,8,9-tetrahydro-5H-pyrimido[4,5-e][1,4]diazepin-5-one] | 500 to 3000 nM | 500 to 3000 nM | 100 to 500 nM |
| CNCC[C@H](Oc1cccc(N2CCN(C)c3cc(N)ncc3C2=O)c1)c1cccs1 [Example 304, (S)-8-amino-1-methyl-4-(3-(3-(methylamino)-1-(thiophen-2-yl)propoxy)phenyl)-1,2,3,4-tetrahydro-5H-pyrido[4,3-e][1,4]diazepin-5-one] | 100 to 500 nM | 100 to 500 nM | 100 to 500 nM |
| CNCC[C@H](Oc1ccc(CN2CCN(C)c3cc(N)ncc3C2=O)cc1)c1cccs1 [Example 305, (S)-8-amino-1-methyl-4-(4-(3-(methylamino)-1-(thiophen-2-yl)propoxy)benzyl)-1,2,3,4-tetrahydro-5H-pyrido[4,3-e][1,4]diazepin-5-one] | 100 to 500 nM | 100 to 500 nM | 100 to 500 nM |
